# How the values were obtained:
# HepG2 cells [1] = experiment: Extracellular lactate levels, enzyme-linked colorimetric assay; assay type: cell-based; conditions: HepG2 culture medium; for Extracellular lactate [% control]: 25 mM glucose, supernatant after 48 h, standardized to protein; for Effect on lactate production (in words): comment on the lactate table
# Experimental: Lactate concentrations in culture medium were determined by an enzyme-linked colorimetric assay. Briefly, 150,000 HepG2 cells were seeded in normal growth media (DMEM, 10% FCS, Pen/Strep) in each well of a 6-well plate (Life Science, USA) and incubated for 24 h. The media was replaced with growth media containing (25 mM glucose,) with and without test compounds. Three untreated wells containing only cells were considered the experimental baseline control and all compounds were tested in three different wells simultaneously. Supernatants were collected after 48 h and transferred into 96-well format. After the addition of 90 μl of reaction buffer (10 mM KH2PO4 pH 7.8, 1 mg/ml BSA, 0.5 mM PMS, 2 mM EDTA, 0.6 mM DCPIP, 0.8 mM NAD+, 5 U/ml glutamate-pyruvate-transaminase, 1.5 mM glutamate, 12.5 U/ml lactate dehydrogenase) the plate was incubated at 30° C. inside a multimode plate reader (Multiscan Go, Thermo Scientific) and absorbance was measured at 600 nm over a period of 100 minutes. A standard curve was generated using media spiked with known lactate concentrations. Finally, protein levels were quantified and the lactate concentration of each well was standardized to its protein content and was then expressed as % of control.
# The extent of lactate reduction in the cell culture media by the test compounds of the subject invention and the Comparative Compounds vitamin K, menadione and idebenone is shown below in Table 6.
# HepG2 cells [2] = experiment: Rescue of cell viability in the presence of a mitochondrial inhibitor (rotenone 1 μM); assay type: cell-based; conditions: for viability at 10 µM: Homo sapiens
# Experimental: (§1) Cytoprotection of HepG2 cells by naphthoquinones was quantified in the presence of the mitochondrial toxin, rotenone. Briefly, HepG2 cells were seeded in 96-well plates at 5000 cells/well in DMEM with 0.3 g/l glucose, 10% FBS and Penicillin-Streptomycin-Glutamine. After overnight incubation under standard conditions, cells were treated with the test compounds (10 μM) for 2 days before cells were challenged with 1 μM rotenone in the presence of 10 μM test compounds in Hank's balanced salt solution (HBSS) for 6 hours. This was followed by post-incubation for an additional 18 hours with only 10 μM test compounds in HBSS. For measurement of cell viability, cells were washed with 100 μL PBS twice and then lysed using 40 μL lysis solution (4 mM EDTA, 0.2% Triton X-100) for 5 min at room temperature (RT) on an orbital shaker at 200 rpm. Then 10 μL of the lysate was mixed with 90 μL of enzyme-substrate mixture (as described above) in a white 96 well plate and luminescence was measured immediately using a plate-reader (Fluoroscan Ascent, Thermo Scientific). The data is expressed as % viability compared to the untreated (no-rotenone) control.
# The extent of protection of cellular viability against a rotenone challenge of representative compounds of Formula (I) is shown below in Table 5. Vitamin K, Menadione and Idebenone were used as comparative controls. DMSO was used as a control.
# HepG2 cells [3] = experiment: Cell viability in the presence of a mitochondrial inhibitor (rotenone 10 μM); assay type: cell-based; conditions: for viability at 10 µM: Homo sapiens, HepG2, 48 h, read-out: CELL VIABILITY [%]
# Experimental: as §1
# The cytoprotective effects of representative compounds of Formula (I) were further examined in vitro in response to rotenone toxicity at (10 μM). […] Cells were treated with the representative compounds of Formula (I) compounds (10 μM) for 2 days before cells were challenged with 10 μM rotenone.
# Vitamin K, Menadione and Idebenone were used as comparative controls.
# HepG2 cells [4] = experiment: Acute ATP rescue assay (impaired mitochondrial function, rotenone); assay type: cell-based; conditions: for ATP rescue (in words): HepG2, rotenone, comment on Table 4
# Experimental: HepG2 cells were seeded at a density of 5000 cells per well in a 96-well plate and incubated for 24 hours in DMEM with 0.3 g/l glucose, 10% FBS and Penicillin-Streptomycin-Glutamine. Cells were treated with 1 μM quinones in presence or absence of rotenone (10 μM), for 60 minutes in glucose-free DMEM ATP levels were quantified using luminescence from the ATP-dependent enzymatic oxidation of luciferin by luciferase. Cells were lysed in a volume of 40 μl (4 mM EDTA, 0.2% Triton X-100) for five minutes at room temperature (RT) on an orbital shaker at 200 rpm. […] Luminescence was quantified immediately using a multimode plate reader (Fluoroscan Ascent, Thermo Scientific). ATP levels were standardized to protein levels using a commercial BCA assay (Protein DC; BioRad) and changes were calculated as percentage relative to levels of DMSO-treated control cells. Data is expressed as % ATP compared to the untreated (no-rotenone) control.
# Vitamin K, menadione and idebenone were used as comparative controls. DMSO was used as a control.
# [5] = tested on: LHON model induced by intravitreal rotenone in C57BL/6 mouse; experiment: Leber's hereditary optic neuropathy (LHON) mouse model, optomotor response; assay type: in vivo; conditions: rotenone in left eye, 200 mg/kg orally in food
# Experimental: FIG. 5: Efficacy of representative compounds of Formula (I) in leber's hereditary optic neuropathy (LHON) mouse model. LHON induced by rotenone injection in the left eye (5 μM) in C57BL/6 mouse model (Refer to Heitz, F. D et al. (2012). PLoS One., 7(9), e45182). […] Representative compounds (UTA 37 and UTA 77) and idebenone administered at 200 mg/kg over the observation period.
# LHON model was induced by intravitreal injection of rotenone into the left eye in C57BL/6 mouse model as described by Heitz et al. 2012. Representative compounds (UTA 37 and UTA 77) and idebenone administered at 200 mg/kg over the observation period. Vision loss was measured by assessing number of head turns.
# C57BL/6 mice (male, 8-11 weeks of age, average body weight≈25 g) were used in accordance with the Australian code for the use of animals for scientific purposes and under the required animal ethics approval from the University of Tasmania (UTAS) Animal Ethics Committee (Approval number A0016080). Animals were given at least seven days to acclimatise to the animal facility to reduce stress induced by transportation before being used for behavioural testing. All mice were supplied orally with test compounds by mixing test compounds into individual daily food portions as described previously (Heitz, F. D. et al. (2012). PLoS One., 7(9), e45182). […]
# HepG2 cells [6] = experiment: ATP rescue in the presence of a mitochondrial inhibitor (rotenone 10 μM); assay type: cell-based; conditions: compounds 10 uM for 2 days, then 10 μM rotenone challenge
# Experimental: The extent of ATP rescue of representative compounds of Formula (I) were further examined in vitro in response to rotenone toxicity at (10 μM). […] Cells were treated with the representative compounds of Formula (I) compounds (10 μM) for 2 days before cells were challenged with 10 μM rotenone.
Compound,Extracellular lactate [% control] (HepG2 cells [1]),Effect on lactate production (in words) (HepG2 cells [1]),viability at 10 µM (HepG2 cells [2]; HepG2),viability at 10 µM (HepG2 cells [3]),ATP rescue (in words) (HepG2 cells [4]),"activity at 1 µM (HepG2 cells [4]; Homo sapiens, 1 h, HepG2, 1 μM quinones with rotenone 10 μM, 60 minutes, glucose-free DMEM, % ATP compared to untreated (no-rotenone) control)",melting point,"Protection of visual acuity (head turns, optomotor response; in words) [5]","Protection of cell viability (in words) (HepG2 cells [2]; HepG2, rotenone, comment on Table 5)","Viability [%] (HepG2 cells [2]; HepG2, 10 μM test compound 2 days, 1 μM rotenone challenge 6 hours, 18 hours post-incubation, % of untreated (no-rotenone) control)","CELL VIABILITY [%] (HepG2 cells [3]; HepG2, compounds 10 uM for 2 days, then 10 μM rotenone challenge)","ATP rescue [%] (HepG2 cells [4]; HepG2, 1 μM quinones with rotenone 10 μM, 60 minutes, glucose-free DMEM, % ATP compared to untreated (no-rotenone) control)",% ATP RESCUE (HepG2 cells [6])
"CC1=CC(=O)c2ccccc2C1=O [Menadione, reference compound]",163.3 % control,increase lactate concentrations,64%,64%,no or minor effects,30.6%,–,–,–,–,–,–,–
"CC1=C(CCCCCCCCCCO)C(=O)c2ccccc2C1=O [UTA #2, 2-(10-Hydroxydecyl)-3 methyl-1,4-naphthoquinone]",–,–,–,68.9%,–,–,74 to 75 °C,–,–,–,–,–,–
"CC1=C(CCCC(=O)N[C@@H](Cc2ccccc2)C(=O)O)C(=O)c2ccccc2C1=O [UTA #37, (S)-2-(4-(3-methyl-1,4-naphthoquinone-2-yl)butanamido)-3-phenylpropanoic Acid]",–,–,100%,100%,–,–,–,Statistically significant protection of visual acuity,–,–,–,–,–
Vitamin K [reference compound],92.0 % control,slight but non-significant effect,–,–,no or minor effects,–,–,–,no protective effect,14.5%,14.5%,3.5%,3.5%

# From patent US10934253B2, “Therapeutic compounds and methods” (UNIVERSITY OF TASMANIA, priority 2017, dated 2021)
